Laboratory results as given in the supplement of paper PMC13207355.

How the values were obtained:
Conditions in all cases: exposure time: 72 h
E13 [1] = patient-derived glioblastoma stem cells of classical subtype; assay: surviving fraction (nuclei count normalised to DMSO); higher = more cells surviving (less toxic)
E21 [2] = patient-derived glioblastoma stem cells of mesenchymal subtype; assay: as above
E28 [3] = patient-derived glioblastoma stem cells of classical subtype; assay: as above
E31 [4] = patient-derived glioblastoma stem cells of proneural subtype; assay: as above
E34 [5] = patient-derived glioblastoma stem cells of proneural subtype; assay: as above
E57 [6] = patient-derived glioblastoma stem cells of mesenchymal subtype; assay: as above
FT3469 [7] = normal neural stem cell line; assay: as above
E13 [8] = assay: phenotypic distance (Euclidean, principal components) from DMSO controls (arbitrary units); higher = stronger morphological change
E21 [9] = assay: as above
E28 [10] = assay: as above
E31 [11] = assay: as above
E34 [12] = assay: as above
E57 [13] = assay: as above
FT3469 [14] = assay: as above
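Throughout, for phenotypic distance (Euclidean, principal components) from DMSO controls: cell Painting imaging in 384-well plates, CellProfiler features reduced to at least 20 principal components, Euclidean distance versus same-plate DMSO vehicle wells (0.1% v/v), median over six images per well.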
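Throughout, for surviving fraction (nuclei count normalised to DMSO): nuclei counted by high-content imaging of Hoechst-stained cells in laminin-coated 384-well plates, relative to 0.1% DMSO vehicle wells, with staurosporine as cell-death control.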

C/C=C1\NC(=O)[C@H]2CSSCC/C=C/[C@H](CC(=O)N[C@H](C(C)C)C(=O)N2)OC(=O)[C@H](C(C)C)NC1=O [Romidepsin]
Conditions | phenotypic distance | surviving fraction
E13 [1], 4.1 nM | – | 0.219
E13 [1], 12.3 nM | – | 0.212
E13 [1], 37 nM | – | 0.191
E13 [1], 111.1 nM | – | 0.211
E13 [1], 333.3 nM | – | 0.169
E13 [1], 1000 nM | – | 0.0814
E13 [1], 3000 nM | – | 0.00947
E13 [8], 4.1 nM | 4.99 | –
E13 [8], 12.3 nM | 4.79 | –
E13 [8], 37 nM | 4.79 | –
E13 [8], 111.1 nM | 5.03 | –
E13 [8], 333.3 nM | 4.51 | –
E13 [8], 1000 nM | 6.31 | –
E13 [8], 3000 nM | 8.31 | –
E21 [2], 4.1 nM | – | 0.102
E21 [2], 12.3 nM | – | 0.0766
E21 [2], 37 nM | – | 0.0713
E21 [2], 111.1 nM | – | 0.0809
E21 [2], 333.3 nM | – | 0.049
E21 [2], 1000 nM | – | 0.00532
E21 [2], 3000 nM | – | 0
E21 [9], 4.1 nM | 6.02 | –
E21 [9], 12.3 nM | 7.55 | –
E21 [9], 37 nM | 7.46 | –
E21 [9], 111.1 nM | 6.75 | –
E21 [9], 333.3 nM | 7.68 | –
E21 [9], 1000 nM | 9.06 | –
E21 [9], 3000 nM | 20.2 | –
E28 [3], 4.1 nM | – | 0.157
E28 [3], 12.3 nM | – | 0.153
E28 [3], 37 nM | – | 0.138
E28 [3], 111.1 nM | – | 0.194
E28 [3], 333.3 nM | – | 0.17
E28 [3], 1000 nM | – | 0.17
E28 [3], 3000 nM | – | 0.0691
E28 [10], 4.1 nM | 4.95 | –
E28 [10], 12.3 nM | 5.55 | –
E28 [10], 37 nM | 5.4 | –
E28 [10], 111.1 nM | 4.65 | –
E28 [10], 333.3 nM | 5.39 | –
E28 [10], 1000 nM | 5.54 | –
E28 [10], 3000 nM | 6.46 | –
E31 [4], 4.1 nM | – | 0.00149
E31 [4], 12.3 nM | – | 0.0134
E31 [4], 37 nM | – | 0.00446
E31 [4], 111.1 nM | – | 0.00892
E31 [4], 333.3 nM | – | 0.00594
E31 [4], 1000 nM | – | 0.00446
E31 [4], 3000 nM | – | 0.00892
E31 [11], 4.1 nM | 12.3 | –
E31 [11], 12.3 nM | 10.3 | –
E31 [11], 37 nM | 11 | –
E31 [11], 111.1 nM | 8.91 | –
E31 [11], 333.3 nM | 7.47 | –
E31 [11], 1000 nM | 18.1 | –
E31 [11], 3000 nM | 7.62 | –
E34 [5], 4.1 nM | – | 0.302
E34 [5], 12.3 nM | – | 0.292
E34 [5], 37 nM | – | 0.271
E34 [5], 111.1 nM | – | 0.359
E34 [5], 333.3 nM | – | 0.286
E34 [5], 1000 nM | – | 0.245
E34 [5], 3000 nM | – | 0.1
E34 [12], 4.1 nM | 8.64 | –
E34 [12], 12.3 nM | 7.96 | –
E34 [12], 37 nM | 9.03 | –
E34 [12], 111.1 nM | 8.78 | –
E34 [12], 333.3 nM | 7.71 | –
E34 [12], 1000 nM | 8.57 | –
E34 [12], 3000 nM | 7.26 | –
E57 [6], 4.1 nM | – | 0.062
E57 [6], 12.3 nM | – | 0.0535
E57 [6], 37 nM | – | 0.0389
E57 [6], 111.1 nM | – | 0.0558
E57 [6], 333.3 nM | – | 0.0428
E57 [6], 1000 nM | – | 0.0349
E57 [6], 3000 nM | – | 0.00732
E57 [13], 4.1 nM | 8.58 | –
E57 [13], 12.3 nM | 7.79 | –
E57 [13], 37 nM | 9.5 | –
E57 [13], 111.1 nM | 9.16 | –
E57 [13], 333.3 nM | 8.37 | –
E57 [13], 1000 nM | 9.9 | –
E57 [13], 3000 nM | 11.1 | –
FT3469 [7], 4.1 nM | – | 0.237
FT3469 [7], 12.3 nM | – | 0.267
FT3469 [7], 37 nM | – | 0.31
FT3469 [7], 111.1 nM | – | 0.274
FT3469 [7], 333.3 nM | – | 0.321
FT3469 [7], 1000 nM | – | 0.123
FT3469 [7], 3000 nM | – | 0.0672
FT3469 [14], 4.1 nM | 3.71 | –
FT3469 [14], 12.3 nM | 2.82 | –
FT3469 [14], 37 nM | 3.47 | –
FT3469 [14], 111.1 nM | 2.86 | –
FT3469 [14], 333.3 nM | 3.77 | –
FT3469 [14], 1000 nM | 5.6 | –
FT3469 [14], 3000 nM | 8.06 | –
